Data reported in patent US20220218834A1, “APOHEMOGLOBIN-HAPTOGLOBIN COMPLEXES AND METHODS OF USING THEREOF” (OHIO STATE INNOVATION FOUNDATION, priority 2019, published 2022).
Several values for one entry are separate records, joined by “and”; a condition that tells them apart may be missing. Identical values can stand only once. Marks after values point to notes of the source that are not given here.

Assays:
[1] = O2 equilibrium binding curves of rHb and native Hb (Hemox analyzer); type: biochemical; conditions: 37° C.; for P50: O2 affinity; for N (cooperativity coefficient n): O2 equilibrium
Method: rHb Analysis. Various liganded forms of rHb were analyzed via UV-Vis spectroscopy and compared against native Hb. The oxy-rHb and oxyHb equilibrium binding curves were measured using a Hemox analyzer (TCS Scientific Corp., New Hope, Pa.) at 37° C. The spectra of rHb was measured after one day reaction with excess heme (stage 1), after reduction and diafiltration with the modified HEMOX buffer (stage 2), after placing the rHb mixture under a CO atmosphere (stage 3), after heating the CO-rHb mixture and removing precipitate (stage 4), and after re-oxygenating the rHb sample (stage 5). Spectral deconvolution software was developed in the Python programming language (Python Software Foundation Beaverton, Oreg.) using the non-linear least squares function curve_fit of the SciPy package to determine the fraction of various liganded forms of rHb that contribute to the final spectra of the rHb mixture (i.e. containing metHb, hemichrome, oxyHb, HbCO and heme).

[2] = Specificity of Al-PC binding to proteins (UV-visible absorbance at 680 nm); conditions: absorbance at 680 nm after Al-PC addition in PBS
Method: The stock Al-PC solution was diluted 100× into 100% EtOH.
The concentrations of Hp, HSA, Hb and rHb in solution were 1.0 mg/mL, 0.35 mg/ml (and 3.5 mg/ml), 0.35 mg/mL, and 0.33 mg/mL respectively.

Substance	P50 [1]	P50 ([1]; listed as concentrated rHb)	N (cooperativity coefficient n) [1]	N (cooperativity coefficient n) ([1]; listed as concentrated rHb)	Al-PC binding [2]	P50 ([1]; listed as unconcentrated rHb)	N (cooperativity coefficient n) ([1]; listed as unconcentrated rHb)
TFF rHb Concentrated: reconstituted Hb made from concentrated TFF-apoHb	11.36 ± 0.87 mm Hg	11.36±0.87 mm Hg	2.14 ± 0.17^a	2.14±0.17	–	–	–
TFF rHb: reconstituted Hb made from TFF-apoHb and heme	11.52±0.02 mm Hg and 11.20 ± 0.43 mm Hg	–	–	–	no appreciable binding of Al-PC	11.20±0.43 mm Hg	2.27±0.10
